Each structure is given as a SMILES string.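 Cells were grown in 96-well plates and exposed to each compound for 48 hours at five concentrations; endpoints were interpolated linearly between bracketing concentrations, or set to the highest concentration if not reached. GI50: concentration for 50% inhibition of growth.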 The source made the active and inactive calls. Cut-off read from the data, not from the text of the source: active = GI50 up to about 1.1 µM and inactive = higher.

Common to all, as to assay: NCI-60 cell line screen, 48 h
Test [1] deals with MDA-MB-435.
Test [2] relates to RPMI-8226.
Test [3] concerns NCI-H522.
The test system of test [4] is UACC-62.
The subject of test [5] is M14.
In test [6] the test system is BT-549.
Test [7] concerns MOLT-4.
For test [8], the system named is U-251.
The test system of test [9] is SW-620.
Test [10] has as its system HOP-62.
The subject of test [11] is EKVX.
Test [12] deals with UO-31.
The subject of test [13] is Malme-3M.
Test [14] deals with SK-MEL-5.
For test [15], the system named is NCI-H226.
Test [16] deals with HCT-15.
The subject of test [17] is HOP-92.
The test system of test [18] is LOX IMVI.
Test [19] relates to HCC 2998.

Turning to `C1=Cc2ccccc2C1.C=C(C)c1ccccc1.[N-]=[N+]=Nc1ccccc1`, the GI50 is 70.6 µM (inactive) in test [1]; 80 µM (inactive) in test [2]; 34.3 µM (inactive) in [3]; 45.8 µM (inactive) in [4]; > 100 µM (inactive) in [5]; > 100 µM (inactive) in test [6]. The GI50 was 96.2 µM (inactive) in test [7]; 71.3 µM (inactive) in [8]; 67.3 µM (inactive) in test [9]; > 100 µM (inactive) in test [10]; 38.5 µM (inactive) in test [11]; > 100 µM (inactive) in test [12]. In addition, the GI50 was > 100 µM (inactive) in test [13]; > 100 µM (inactive) in test [14]; 52.1 µM (inactive) in test [15]; more than 100 µM in test [16]; 47.1 µM (inactive) in test [17]; > 100 µM (inactive) in test [18].
Regarding `c1ccc(NN(Cc2cnccn2)c2ccccc2)cc1`, the GI50 in test [1] was 89.9 µM (inactive); in test [2], 55.7 µM (inactive); in test [3], 44 µM (inactive); in test [4], 81.8 µM (inactive); in test [5], 90.2 µM (inactive); in test [6], > 100 µM (inactive). Also, the GI50 in test [7] is 42.3 µM (inactive); in test [8], 65 µM (inactive); in test [9], > 100 µM (inactive); in [10], > 100 µM (inactive); in test [11], 75.5 µM (inactive); in test [13], > 100 µM (inactive). For the same compound, the GI50 in test [14] was 40.2 µM (inactive); in test [15] it was 80.2 µM (inactive); in test [16] it was 79.8 µM; in [17], 19.1 µM (inactive); in test [18], 77.6 µM (inactive).
As for `Nn1c(CCCCCCCCc2nnc(COc3c(O)ccc4ccccc34)n2N)nnc1COc1c(O)ccc2ccccc12`, the GI50 is > 100 µM (inactive) in test [1]; 63.1 µM (inactive) in [2]; > 100 µM (inactive) in test [3]; > 100 µM (inactive) in [4]; > 100 µM (inactive) in [5]; > 100 µM (inactive) in test [6]. Moreover, the GI50 in test [7], in test [8], in [9], in test [19], in test [11] and in test [12] was > 100 µM (inactive) in each case. The GI50 in test [13] was > 100 µM (inactive); in test [14] it was > 100 µM (inactive); in test [15] it was > 100 µM (inactive); in [16], more than 100 µM; in test [17], > 100 µM (inactive).
For `COc1ccc(/N=C/N(C)C)c(C)c1`, the GI50 in test [1] was 6.08 µM (inactive); in test [2] it was > 100 µM (inactive); in [3], 2.43 µM (inactive); in [4], 7.08 µM (inactive); in test [5], 13.6 µM (inactive); in test [6], 18.3 µM (inactive). The GI50 is 2.6 µM (inactive) in test [7]; 4.28 µM (inactive) in test [8]; 18.3 µM (inactive) in test [10]; 10.6 µM (inactive) in test [11]; 26.1 µM (inactive) in test [12]; 9.57 µM (inactive) in [13]. Besides, the GI50 was 3.01 µM (inactive) in [14]; 11.2 µM (inactive) in [15]; 35.3 µM in [16]; 10.5 µM (inactive) in test [17]; 3.15 µM (inactive) in test [18].
As for `COC1CC(C)(NC(C)=O)C2OC(c3ccccc3)OCC2O1` (stereo not drawn), the GI50 in test [1], in [2], in test [3], in test [4], in [5] and in [6] was > 100 µM (inactive) in each case. In addition, the GI50 in [7], in [8], in test [9], in [10], in [11] and in test [12] was > 100 µM (inactive) each time. In addition, the GI50 is > 100 µM (inactive) in [13]; > 100 µM (inactive) in test [14]; > 100 µM (inactive) in test [15]; more than 100 µM in [16]; > 100 µM (inactive) in test [17]; > 100 µM (inactive) in test [18].
Turning to `Cc1ccc2c(=O)cc(-c3ccc(-c4ccccc4)s3)[nH]c2n1`, the GI50 in test [1] is 5.33 µM (inactive); in [2] it was 4.53 µM (inactive); in test [3] it was > 19.7 µM (inactive); in test [4], 17 µM (inactive); in test [5] it was > 100 µM (inactive); in test [6], > 33.6 µM (inactive). For the same compound, the GI50 in test [7] is 4.18 µM (inactive); in [8], 16.4 µM (inactive); in test [9], > 31.5 µM (inactive); in test [10], 30.6 µM (inactive); in [11], 27.2 µM (inactive); in [12], 0.0305 µM (active). The GI50 in test [13] is > 42.9 µM (inactive); in [14] it was 2.87 µM (inactive); in test [15], 29.1 µM (inactive); in test [16], more than 28.8 µM; in [17], > 41.2 µM (inactive); in test [18] it was > 48.3 µM (inactive).
Consider `Cc1c(/C=N\NC(=S)N2CCN(C(=S)N/N=C\c3c(C)n(C)n(-c4ccccc4)c3=O)CC2)c(=O)n(-c2ccccc2)n1C`, for which the GI50 is 4.52 µM (inactive) in test [1]; 60.7 µM (inactive) in test [3]; 32.9 µM (inactive) in [4]; 57 µM (inactive) in [5]; 44 µM (inactive) in test [6]; 37.4 µM (inactive) in test [7]. Further, the GI50 in [8] was 29.1 µM (inactive); in test [9] it was 33.2 µM (inactive); in [19], 45.4 µM (inactive); in test [10], 37.2 µM (inactive); in test [11] it was 71.6 µM (inactive); in test [12] it was > 100 µM (inactive). The GI50 in test [13] is 72.4 µM (inactive); in test [14], > 100 µM (inactive); in test [15], > 100 µM (inactive); in [16], 46.9 µM; in [17], 40.9 µM (inactive).
Take `O=C1CSCC(=O)Nc2ccccc2N1`: the GI50 in [1], in test [2], in test [3], in [4], in test [5] and in [6] was > 100 µM (inactive) in each case. Further, the GI50 in [7], in test [8], in [9], in test [10], in test [11] and in test [12] was > 100 µM (inactive) in each case. Moreover, the GI50 in [13] is > 100 µM (inactive); in test [14] it was > 100 µM (inactive); in [15] it was > 100 µM (inactive); in test [16], more than 100 µM; in test [17] it was > 100 µM (inactive); in [18], > 100 µM (inactive).
Consider `O=[N+]([O-])c1cc(/N=N/c2c(O)ccc3cc(S(=O)(=O)O)ccc23)c(O)c([N+](=O)[O-])c1`, for which the GI50 in test [1], in test [2], in test [3], in [4], in test [5] and in [6] was > 100 µM (inactive) in each case. In addition, the GI50 in [7] is 31.5 µM (inactive); in test [8], > 100 µM (inactive); in test [9] it was 93.1 µM (inactive); in test [10], > 100 µM (inactive); in [11], > 100 µM (inactive); in [12] it was 39.4 µM (inactive). For the same compound, the GI50 in test [13] was > 100 µM (inactive); in test [14] it was > 100 µM (inactive); in [15] it was 47.9 µM (inactive); in [16], 51.8 µM; in test [17], > 100 µM (inactive); in test [18], 49 µM (inactive).
`O=C(CCCn1ccnc1[N+](=O)[O-])NCCn1cncc1[N+](=O)[O-]`: the GI50 in test [1], in test [2], in [3], in test [4], in test [5] and in [6] was > 100 µM (inactive) throughout. For the same compound, the GI50 in test [7], in test [8], in test [9], in test [10], in test [11] and in test [12] was > 100 µM (inactive) in each case. Further, the GI50 in test [13] was > 100 µM (inactive); in [14], > 100 µM (inactive); in [15], > 100 µM (inactive); in test [16] it was more than 100 µM; in test [17] it was > 100 µM (inactive); in [18], > 100 µM (inactive).
As to `CCCCC/C=C1/CC(CO)(COC(=O)CC(C(C)C)C(C)C)OC1=O` (stereo not drawn), the GI50 in test [1] was 6.27 µM (inactive); in test [3] it was 16.4 µM (inactive); in test [4] it was 13.7 µM (inactive); in [5], 14.1 µM (inactive); in test [6], 14.8 µM (inactive); in test [7], 5.42 µM (inactive). The GI50 in test [8] was 14.1 µM (inactive); in test [9], 18.3 µM (inactive); in test [19] it was 16.7 µM (inactive); in [10] it was 7.74 µM (inactive); in test [11] it was 14.2 µM (inactive); in [12], 11.9 µM (inactive). The GI50 in test [13] was 3.27 µM (inactive); in test [14] it was 9.95 µM (inactive); in test [15], 12.1 µM (inactive); in test [16], 18.7 µM; in test [17] it was 7.35 µM (inactive).

Source of the values: ChEMBL document CHEMBL1201862, “PubChem BioAssay data set” (2004).
